We go through 26 compounds from patent publication US8138168B1 (Takeda Pharmaceutical Company Limited, priority 2007, dated 2012).

The assay concerns the target T1, Recombinant human renin (Homo sapiens, UniProt P00797).
T1 construct: isolate the active form (residues 67-406); made in house; host or cells: FreeStyle 293-F cells (transient expression of pcDNA3.1(+)/hREN)
T1 sequence (P00797 67-406): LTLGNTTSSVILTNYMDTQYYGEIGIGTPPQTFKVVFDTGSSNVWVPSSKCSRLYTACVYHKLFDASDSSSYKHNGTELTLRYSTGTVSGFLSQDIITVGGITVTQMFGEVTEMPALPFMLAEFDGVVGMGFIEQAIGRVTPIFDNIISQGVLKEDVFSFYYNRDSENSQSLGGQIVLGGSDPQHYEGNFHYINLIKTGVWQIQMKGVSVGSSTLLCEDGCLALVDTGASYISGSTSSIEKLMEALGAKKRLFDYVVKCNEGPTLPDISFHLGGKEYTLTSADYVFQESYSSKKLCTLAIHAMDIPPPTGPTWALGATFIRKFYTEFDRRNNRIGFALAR
In words: In vitro enzymatic activity assay of renin inhibitors (fluorogenic peptide substrate). The class given is biochemical. Conditions: read-out: IC50 of Exemplified Compounds Against Renin. In short, it runs like this: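 Recombinant human renin (3 nM final) pre-incubated 10 min at 37 °C with compounds in pH 7.4 Hepes/EDTA/DTT/0.1 mg/mL BSA/Brij35 buffer (optionally plus 2% BSA), 5% DMSO final; fluorogenic QXL520/HiLyteFluo488 peptide substrate added.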

For orientation: IC50 means the point on the concentration scale where inhibition reaches its midpoint. As to `NC(=O)CCn1c([C@@H]2CCCN(C(=O)C[C@H](N)Cc3ccc(-c4ccc5c(c4)OC(F)(F)O5)cc3)C2)nc2ccccc21` [Compound 483, 3-(2-((R)-1-((R)-3-amino-4-(4-(2,2-difluorobenzo[d][1,3]dioxol-5-yl)phenyl)butanoyl)piperidin-3-yl)-1H-benzo[d]imidazol-1-yl)propanamide], the IC50 fell in the range of 100 to 1000 nM.

As for `COCCCn1c([C@@H]2CCCN(C(=O)C[C@H](N)CNS(=O)(=O)c3ccccc3Cl)C2)nc2ccccc21` [Compound 306, N-((S)-2-amino-4-((R)-3-(1-(3-methoxypropyl)-1H-benzo[d]imidazol-2-yl)piperidin-1-yl)-4-oxobutyl)-2-chlorobenzenesulfonamide], the IC50 lay in the range of 100 to 1000 nM.

Regarding `N[C@@H](CC(=O)N1CCCC(c2nc3ccccc3[nH]2)C1)c1ccc(C(F)(F)F)cc1` (stereo partly drawn) [Compound 25, (3S)-1-(3-(1H-benzo[d]imidazol-2-yl)piperidin-1-yl)-3-amino-3-(4-(trifluoromethyl)phenyl)propan-1-one], the IC50 was greater than 1000 nM.

Consider `COCCCn1c([C@@H]2CCCN(C(=O)[C@@H]3CN(S(=O)(=O)c4cccc(Cl)c4C)C[C@H]3N)C2)nc2ccccc21` [Compound 353, ((3R,4S)-4-amino-1-(3-chloro-2-methylphenylsulfonyl)pyrrolidin-3-yl)((R)-3-(1-(3-methoxypropyl)-1H-benzo[d]imidazol-2-yl)piperidin-1-yl)methanone], for which the concentration for half-maximal inhibition (IC50) fell in the range of 100 to 1000 nM.

Take `COCCCn1c([C@@H]2CCCN(C(=O)C[C@H](N)CNC(=O)c3ccc4c(c3)OCCO4)C2)nc2ccccc21` [Compound 308, N-((S)-2-amino-4-((R)-3-(1-(3-methoxypropyl)-1H-benzo[d]imidazol-2-yl)piperidin-1-yl)-4-oxobutyl)-2,3-dihydrobenzo[b][1,4]dioxine-6-carboxamide]: the IC50 was 100 to 1000 nM.

In the case of `COCCCn1c([C@@H]2CCCN(C(=O)[C@@H]3CN(S(=O)(=O)c4ccc5c(ccn5C)c4)C[C@H]3N)C2)nc2ccccc21` [Compound 360, ((3R,4S)-4-amino-1-(1-methyl-1H-indol-5-ylsulfonyl)pyrrolidin-3-yl)((R)-3-(1-(3-methoxypropyl)-1H-benzo[d]imidazol-2-yl)piperidin-1-yl)methanone], the IC50 is 100 to 1000 nM.

Turning to `COCCCn1c([C@@H]2CCCN(C(=O)C[C@H](N)CNC(=O)c3ccc4ccccc4c3)C2)nc2ccccc21` [Compound 249, N-((S)-2-amino-4-((R)-3-(1-(3-methoxypropyl)-1H-benzo[d]imidazol-2-yl)piperidin-1-yl)-4-oxobutyl)-2-naphthamide], the IC50 was less than 100 nM.

Take `N[C@H]1CCC[C@@H]1C(=O)N1CCCC(c2nc3ccccc3[nH]2)C1` (stereo partly drawn) [Compound 57, (3-(1H-benzo[d]imidazol-2-yl)piperidin-1-yl)((1S,2S)-2-aminocyclopentyl)methanone]: the IC50 is greater than 1000 nM.

Regarding `COCCCn1c([C@@H]2CCCN(C(=O)[C@@H]3CN(S(=O)(=O)c4ccc(OC)cc4[N+](=O)[O-])C[C@H]3N)C2)nc2ccccc21` [Compound 381, ((3R,4S)-4-amino-1-(4-methoxy-2-nitrophenylsulfonyl)pyrrolidin-3-yl)((R)-3-(1-(3-methoxypropyl)-1H-benzo[d]imidazol-2-yl)piperidin-1-yl)methanone], the IC50 fell in the range of 100 to 1000 nM.

Turning to `COCCCn1c([C@@H]2CCCN(C(=O)[C@@H]3CN(S(=O)(=O)c4cccc(OC(F)F)c4)C[C@H]3N)C2)nc2ccccc21` [Compound 419, ((3R,4S)-4-amino-1-(3-(difluoromethoxy)phenylsulfonyl)pyrrolidin-3-yl)((R)-3-(1-(3-methoxypropyl)-1H-benzo[d]imidazol-2-yl)piperidin-1-yl)methanone], the IC50 is greater than 1000 nM.

For `COCCCn1c([C@@H]2CCCN(C(=O)C[C@H](N)Cc3ccc(-c4ccc(C#N)cc4)cc3)C2)nc2ccccc21` [Compound 164, 4′-((R)-2-amino-4-((R)-3-(1-(3-methoxypropyl)-1H-benzo[d]imidazol-2-yl)piperidin-1-yl)-4-oxobutyl)biphenyl-4-carbonitrile], the IC50 was less than 100 nM.

For `CNC(=O)Nc1ccc(-c2ccc(C[C@@H](N)CC(=O)N3CCC[C@@H](c4nc5ccccc5n4CCCOC)C3)cc2)cc1` [Compound 175, 1-(4′-((R)-2-amino-4-((R)-3-(1-(3-methoxypropyl)-1H-benzo[d]imidazol-2-yl)piperidin-1-yl)-4-oxobutyl)biphenyl-4-yl)-3-methylurea], the IC50 was less than 100 nM.

For `COCCCn1c([C@@H]2CCCN(C(=O)C[C@H](N)Cc3ccc(N4CCC(O)CC4)cc3)C2)nc2ccccc21` [Compound 234, (R)-3-amino-4-(4-(4-hydroxypiperidin-1-yl)phenyl)-1-((R)-3-(1-(3-methoxypropyl)-1H-benzo[d]imidazol-2-yl)piperidin-1-yl)butan-1-one], the IC50 was greater than 1000 nM.

As for `Cc1ccc(NC(=O)N2CCCC(c3nc4ccccc4[nH]3)C2)cc1Cl` (centres unmarked) [Compound 1, 3-(1H-Benzo[d]imidazol-2-yl)-N-(3-chloro-4-methylphenyl)piperidine-1-carboxamide], the IC50 was greater than 1000 nM.

Take `COCCCn1c([C@@H]2CCCN(C(=O)C[C@H](N)Cc3ccc(-c4ccc(NC(=O)COC)cc4)cc3)C2)nc2ccccc21` [Compound 197, N-(4′-((R)-2-amino-4-((R)-3-(1-(3-methoxypropyl)-1H-benzo[d]imidazol-2-yl)piperidin-1-yl)-4-oxobutyl)biphenyl-4-yl)-2-methoxyacetamide]: the IC50 is less than 100 nM.

For `COCCCn1c([C@@H]2CCCN(C(=O)[C@@H]3CN(S(=O)(=O)c4cc(Cl)ccc4OC)C[C@H]3N)C2)nc2ccccc21` [Compound 412, ((3R,4S)-4-amino-1-(5-chloro-2-methoxyphenylsulfonyl)pyrrolidin-3-yl)((R)-3-(1-(3-methoxypropyl)-1H-benzo[d]imidazol-2-yl)piperidin-1-yl)methanone], the IC50 is greater than 1000 nM.

Take `COCCCn1c([C@@H]2CCCN(C(=O)[C@@H]3CN(S(=O)(=O)c4cccc(Cl)c4Cl)C[C@H]3N)C2)nc2ccccc21` [Compound 363, ((3R,4S)-4-amino-1-(2,3-dichlorophenyisulfonyl)pyrrolidin-3-yl)((R)-3-(1-(3-methoxypropyl)-1H-benzo[d]imidazol-2-yl)piperidin-1-yl)methanone]: the IC50 was 100 to 1000 nM.

Regarding `COCCCn1c([C@@H]2CCCN(C(=O)C[C@H](N)Cc3ccc(-c4ccc(C(N)=O)cc4)cc3)C2)nc2ccccc21` [Compound 168, 4′-((R)-2-Amino-4-((R)-3-(1-(3-methoxypropyl)-1H-benzo[d]imidazol-2-yl)piperidin-1-yl)-4-oxobutyl)biphenyl-4-carboxamide], the IC50 was less than 100 nM.

With `COCCCn1c([C@@H]2CCCN(C(=O)C[C@H](N)Cc3ccc(-c4ccc5c(c4)CC(=O)N5)cc3)C2)nc2c(F)cccc21` [Compound 458, 5-(4-((R)-2-amino-4-((R)-3-(4-fluoro-1-(3-methoxypropyl)-1H-benzo[d]imidazol-2-yl)piperidin-1-yl)-4-oxobutyl)phenyl)indolin-2-one], the IC50 was less than 100 nM.

`COCCCn1c([C@@H]2CCCN(C(=O)C[C@H](N)CNC(=O)Nc3ccccc3Oc3ccccc3)C2)nc2ccccc21` [Compound 272, 1-((S)-2-amino-4-((R)-3-(1-(3-methoxypropyl)-1H-benzo[d]imidazol-2-yl)piperidin-1-yl)-4-oxobutyl)-3-(2-phenoxyphenyl)urea]: the IC50 was 100 to 1000 nM.

With `COCCCn1c([C@@H]2CCCN(C(=O)[C@@H]3CN(S(=O)(=O)c4cccc(-c5noc(C)n5)c4)C[C@H]3N)C2)nc2ccccc21` [Compound 409, ((3R,4S)-4-amino-1-(3-(5-methyl-1,2,4-oxadiazol-3-yl)phenylsulfonyl)pyrrolidin-3-yl)((R)-3-(1-(3-methoxypropyl)-1H-benzo[d]imidazol-2-yl)piperidin-1-yl)methanone], the IC50 is greater than 1000 nM.

Consider `NC1(C(=O)N2CCCC(c3nc4ccccc4[nH]3)C2)CC1` (centres unmarked) [Compound 63, (3-(1H-benzo[d]imidazol-2-yl)piperidin-1-yl)(1-aminocyclopropyl)methanone], for which the IC50 is greater than 1000 nM.

Turning to `COCCCn1c([C@@H]2CCCN(C(=O)C[C@H](N)Cc3ccc(-c4ccc(OC)cc4)cc3)C2)nc2ccccc21` [Compound 156, (R)-3-amino-4-(4′-methoxybiphenyl-4-yl)-1((R)-3-(1-(3-methoxypropyl)-1H-benzo[d]imidazol-2-yl)piperidin-1-yl)butan-1-one], the IC50 was less than 100 nM.

As for `COCCCn1c([C@@H]2CCCN(C(=O)C[C@H](N)Cc3ccc(-c4ccc(N)cc4)cc3)C2)nc2ccccc21` [Compound 170, (R)-3-Amino-4-(4′-aminobiphenyl-4-yl)-1-((R)-3-(1-(3-methoxypropyl)-1H-benzo[d]imidazol-2-yl)piperidin-1-yl)butan-1-one], the IC50 is less than 100 nM.

`COCCCn1c([C@@H]2CCCN(C(=O)C[C@H](N)CNC(=O)Nc3ccccc3OC(F)F)C2)nc2ccccc21` [Compound 274, 1-((S)-2-amino-4-((R)-3-(1-(3-methoxypropyl)-1H-benzo[d]imidazol-2-yl)piperidin-1-yl)-4-oxobutyl)-3-(2-(difluoromethoxy)phenyl)urea]: the IC50 lay within 100 to 1000 nM.

For `COCCCn1c([C@@H]2CCCN(C(=O)C[C@H](N)Cc3ccc(-c4ccc(NC(C)=O)cc4)cc3)C2)nc2c(F)cccc21` [Compound 491, N-(4′-((R)-2-amino-4-((R)-3-(4-fluoro-1-(3-methoxypropyl)-1H-benzo[d]imidazol-2-yl)piperidin-1-yl)-4-oxobutyl)biphenyl-4-yl)acetamide], the IC50 was less than 100 nM.
